In PubChem BioAssay (NCI) one finds TGI and GI50 data, which are given here for 20 molecules.

Test in all cases: inhibition of tumour cell growth, NCI panel, 48 h
In test [1] the test system is 786-0 renal.
Test [2] relates to EKVX NSCLC.
Test [3] deals with HCT-116 colon.
The subject of test [4] is K-562 leukemia.
The test system of test [5] is LOX IMVI melanoma.
Test [6] concerns OVCAR-8 ovarian.
Test [7] deals with SF-268 CNS.
Test [8] deals with SK-MEL-2 melanoma.
The test system of test [9] is SNB-75 CNS.

Values joined by “and” are separate entries in the source; they are usually repeats but may differ in a detail not shown here. Identical values can stand only once.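 How tested: cells in 96-well plates exposed to compound for 48 hours at five concentrations. GI50 marks 50% less growth. TGI: total growth inhibition.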

As to `COC(=O)c1ccc(C(=O)OC)c2nc3cc(Cl)ccc3nc12`, the TGI in test [1], in test [2], in test [3], in test [4], in test [5] and in test [6] was over 100 µM in each case. Besides, the TGI in test [7], in test [8] and in [9] was over 100 µM throughout.
With `CCOC(=O)/C(C#N)=C\Sc1ccccc1`, the TGI in [1] is 29.1 µM; in test [2], over 100 µM; in test [3], 59.8 µM; in test [4], over 100 µM; in test [5], 21.4 µM; in test [6], 27.3 µM. Also, the values for the TGI in test [7], in test [8] and in [9] were 28.9 µM, 74.3 µM and 53.9 µM, respectively.
Regarding `O=C1C(Cl)=C(Cl)C(=O)N1c1cccc(C(F)(F)F)c1`, the TGI in [1], in test [2], in test [3], in test [4], in [5] and in test [6] was over 100 µM in each case. For the same molecule, the TGI in test [7], in test [8] and in test [9] was over 100 µM throughout.
Turning to `CCCS(=O)c1nc(COC(=O)NC)c(COC(=O)NC)n1C` (configuration not stated), the TGI in [1], in [2], in [3], in test [4], in [5] and in test [6] was over 100 µM throughout. The TGI in test [7], in [8] and in test [9] was over 100 µM in each case.
As to `O=C(O)/C(Cl)=C(Cl)/C=N/NC(=O)c1cc2ccccc2cc1O`, the TGI in [1], in test [2], in test [3], in [4], in test [6] and in test [7] was over 100 µM throughout. In addition, the values for the TGI in [8] and in [9] were 79.3 µM and over 100 µM, respectively.
As for `C[C@]12CC(C=O)C(=O)C(O)=C1CC[C@@H]1C2CC[C@@]2(C)C1CC[C@]2(C)O` (some centres not stated), the TGI in test [1] is 44.4 µM; in test [2] it was 96 µM; in [3], 54.3 µM; in test [4] it was over 100 µM; in test [5], 24.7 µM; in [6], 89.9 µM. Besides, the figures for the TGI in test [7], in test [8] and in test [9] were 66.1 µM, 26.6 µM and 45.9 µM, respectively.
As for `NC(=O)C(=O)C1C(=O)N(c2ccccc2)N=C1N` (configuration not stated), the TGI in [1], in test [3], in test [4], in test [5], in [6] and in [7] was over 100 µM in each case. In addition, the TGI in [8] and in test [9] was over 100 µM each time.
For `CC(=O)[CH-]C(=O)c1ccccc1.CC(=O)[CH-]C(=O)c1ccccc1.CC[C@H](/C=C/C(C)[C@H]1CCC2[C@@H]3CC=C4C[C@@H]([O-])CC[C@]4(C)C3CC[C@@]21C)C(C)C.CC[C@H](/C=C/C(C)[C@H]1CCC2[C@@H]3CC=C4C[C@@H]([O-])CC[C@]4(C)C3CC[C@@]21C)C(C)C.Cl.[Ti+4]` (some centres not stated), the GI50 is 23 µM in [1]; over 25 µM in [2]; over 25000 nM in test [3]; over 25 µM in test [4]; over 25000 nM in [5]; over 25 µM in [6]. For the same molecule, the GI50 in [7] and in test [8] was over 25 µM each time. Moreover, the TGI in [1], in test [2], in test [3], in [4], in test [5] and in test [6] was over 25 µM each time. Moreover, the TGI in [7] and in test [8] was over 25 µM throughout.
`N#CC(C(=N/O)/C(=N\O)C(C#N)c1ccccc1)c1ccccc1` (configuration not stated): the TGI in test [1], in test [2], in [3], in [4], in test [5] and in test [6] was over 100 µM each time. In addition, the TGI in [7], in test [8] and in test [9] was over 100 µM in each case.
In the case of `CCCCCN(CCCCC)C(=O)[C@H](CCC(=O)O)NC(=O)c1cc2ccccc2[nH]1`, the TGI in [1] was over 100 µM; in test [2], over 100 µM; in test [3] it was 92.5 µM; in test [4], over 100 µM; in [5], over 100 µM; in test [6] it was over 100 µM. Further, the TGI in [7] was over 100 µM; in test [8], over 100 µM; in test [9] it was 98.4 µM.
As for `COc1cccc2c(SCC(=O)Nc3ccccc3-c3ccccc3NC(=O)CSc3c4ccccc4nc4c(OC)cccc34)c3ccccc3nc12`, the TGI in test [1] was over 100 µM; in [2], 95 µM; in [3] it was over 100 µM; in test [4], over 100 µM; in [6] it was over 100 µM; in test [7] it was over 100 µM. Further, the TGI was over 100 µM in test [8] and 44.5 µM in [9].
Turning to `COc1cc2c3cc1Oc1c(OC)c(OC)cc4c1[C@@H](Cc1ccc(O)c(c1)Oc1ccc(cc1)C[C@@H]3N(C)CC2)N(C)CC4`, the TGI in test [1] amounted to 25.6 µM; in test [2], 31.3 µM; in [3] it was 21.1 µM; in [4], 33.5 µM; in test [5], 34.6 µM; in [6], 31.7 µM. Also, the TGI in test [7] came to 45.6 µM; in [8], 30.9 µM; in test [9], 23.2 µM.
As to `COc1ccc(/C=C\c2cc(OC)c(OC)c(OC)c2)cc1OC(=O)CC(N)C(=O)O` (configuration not stated), the GI50 in test [1] is 0.000174 µM; in [3], 0.0407 nM; in [4], 0.000493 µM; in test [5] it was 0.0639 nM; in test [6], 0.00195 µM; in test [7], 0.000945 µM. Further, the GI50 in [8] was 0.00151 µM and 0.00249 µM; in test [9], 0.00286 µM. In addition, the TGI is over 100 µM in test [2], over 100 µM in test [4], 0.365 µM in test [7] and 0.00812 µM in test [8].
As for `C[C@]12Cc3conc3C(O)=C1CC[C@@H]1C2CC[C@@]2(C)C1CC[C@]2(C)O` (some centres not stated), the TGI was over 100 µM in test [1]; 87.6 µM in test [2]; 39.3 µM in test [3]; 87.8 µM in test [4]; 22.7 µM in test [5]; 61.3 µM in test [6]. The TGI in test [7] is over 100 µM; in test [8], 39.3 µM; in test [9] it was 32.4 µM.
As for `Nn1c(-c2cccc(Cl)c2)nc2ccccc2c1=O`, the TGI in test [1], in test [2], in [3], in test [4], in [6] and in [7] was over 100 µM in each case. Also, the TGI in [8] and in test [9] was over 100 µM in each case.
As to `O=C(COC(=O)c1cccc2c(=O)c3ccccc3[nH]c12)Nc1ccc(Cl)cc1`, the TGI in test [1], in [2], in [3], in test [4], in test [5] and in test [6] was over 100 µM each time. The TGI is over 100 µM in test [7] and 78.6 µM in test [9].
Take `O=NN1CCN=C1c1ccc([N+](=O)[O-])cc1`: the TGI in test [1], in test [3], in test [4], in test [5], in [6] and in [7] was over 100 µM in each case. Moreover, in test [9], the TGI was over 100 µM.
Consider `Cc1ccc(C2[C@H]3C(=O)N(c4ccc(Cc5ccc(N6C(=O)[C@@H]7ON(c8ccccc8)C(c8ccc(C)cc8)[C@@H]7C6=O)cc5)cc4)C(=O)[C@H]3ON2c2ccccc2)cc1` (some centres not stated), for which the TGI in test [1], in test [4], in test [5], in test [7], in test [8] and in test [9] was over 100 µM each time.
For the molecule `CN(CCCN1C(=O)c2cccc3cc([N+](=O)[O-])cc(c23)C1=O)CCN(C)CCCN1C(=O)c2cccc3cc([N+](=O)[O-])cc(c23)C1=O`, the TGI in [1], in test [2], in [3], in test [4], in [6] and in test [7] was over 39.3 µM each time. Further, the TGI in [8] and in [9] was over 39.3 µM throughout.
As for `O=C1NC2C3CC(OCc4ccccc4)(OCc4ccccc4)C2OC3O1` (configuration not stated), the TGI in [1], in test [3], in [4], in [5], in test [7] and in test [8] was over 50 µM in each case. For the same molecule, the TGI in test [9] is over 50 µM.
